Values quoted from earlier work, collected in patent US20080188497A1, “Dipyridamole, Acetylsalicylic Acid, and Angiotensin II Antagonist Pharmaceutical Compositions” (Boehringer Ingelheim International GmbH, priority 2003, published 2008).

Conditions: ESPS-2 clinical study; compared with low-dose aspirin / aspirin alone

Q: With `OCCN(CCO)c1nc(N2CCCCC2)c2nc(N(CCO)CCO)nc(N3CCCCC3)c2n1` [dipyridamole, 2,6-bis(diethanolamino)-4,8-dipiperidinopyrimido[5,4-d]pyrimidine] as the compound, how does the “reduction of stroke risk” value read?
A: as effective as low-dose aspirin
